Source: DBAASP
Values after ≈ are worked out from the molar mass of the structure shown. Values belong to the molecule of their own block, whether it stands above or below them.

Assays:
Test in all cases: ≥ marks a high value that may be exact or a test limit, other limits are often not marked, values filed in µg/mL are converted to µM
[1] = test system: Salmonella enterica subsp. enterica serovar Typhi ATCC 6399
Streptococcus agalactiae = test system: Streptococcus agalactiae
[2] = test system: Listeria monocytogenes ATCC 7644
[3] = test system: Staphylococcus aureus ATCC 25923
[4] = test system: Bacillus subtilis ATCC 6633
[5] = test system: Escherichia coli ATCC 25922
Shigella flexneri = test system: Shigella flexneri
[6] = test system: Staphylococcus aureus IFO 12732
[7] = test system: Bacillus subtilis IFO 3513
[8] = test system: Escherichia coli IFO 12734
[9] = test system: Staphylococcus aureus USA 300
[10] = test system: Staphylococcus epidermidis ATCC 35984
[11] = test system: Bacillus subtilis ATCC 23857
[12] = test system: Escherichia coli DSM 1116
[13] = test system: Staphylococcus xylosus DSM 20267
[14] = test system: Acinetobacter sp. DSM 586
[15] = test system: Escherichia coli DH5alpha
[16] = test system: Bacillus subtilis VKM B-501
[17] = test system: Arthrobacter globiformis VKM Ac-1112
[18] = test system: Pseudomonas aeruginosa PAO1
[19] = test system: Bacillus subtilis subsp. spizizenii DSM 347
Escherichia coli MH1 = test system: Escherichia coli MH1
[20] = test system: Saccharomyces cerevisiae Y190
[21] = test system: Pseudomonas aeruginosa ATCC 27853
Bacillus subtilis 168 = test system: Bacillus subtilis 168
Escherichia coli B = test system: Escherichia coli B
[22] = test system: Candida albicans F7-39/IDE99
[23] = test system: Micrococcus luteus CCM 144
Staphylococcus aureus = test system: Staphylococcus aureus
[24] = test system: Staphylococcus aureus ATCC 43300
Pseudomonas aeruginosa = test system: Pseudomonas aeruginosa
[25] = test system: Staphylococcus epidermidis
Staphylococcus aureus 1 = test system: Staphylococcus aureus 1
Escherichia coli K-12 = test system: Escherichia coli K-12

MIC [6]: 3.64 µM (≈ 6.25 µg/mL)
MIC [7]: 1.82 µM (≈ 3.13 µg/mL)
MIC [8]: 29.1 µM (≈ 50 µg/mL)
Compound: CC[C@H](C)[C@H](N)C(=O)N[C@@H](CC(C)C)C(=O)N1CCC[C@H]1C(=O)N[C@@H](CCCCN)C(=O)N[C@@H](CCCCN)C(=O)N[C@@H](Cc1c[nH]c2ccccc12)C(=O)N1CCC[C@H]1C(=O)N[C@@H](CCCCN)C(=O)N[C@@H](CC(C)C)C(=O)N1CCC[C@H]1C(=O)N[C@@H](Cc1c[nH]c2ccccc12)C(=O)N[C@@H](CCCN=C(N)N)C(=O)N[C@@H](CCCN=C(N)N)C(N)=O [ILPKKWPKLPWRR]

MIC [6]: 0.851 µM (≈ 1.56 µg/mL)
MIC [7]: 1.71 µM (≈ 3.13 µg/mL)
MIC [8]: 13.6 µM (≈ 25 µg/mL)
Compound: CC[C@H](C)[C@H](N)C(=O)N[C@@H](CC(C)C)C(=O)N1CCC[C@H]1C(=O)N[C@@H](Cc1c[nH]c2ccccc12)C(=O)N[C@@H](CCCCN)C(=O)N[C@@H](CC(C)C)C(=O)N1CCC[C@H]1C(=O)N[C@@H](Cc1c[nH]c2ccccc12)C(=O)N[C@@H](Cc1c[nH]c2ccccc12)C(=O)N1CCC[C@H]1C(=O)N[C@@H](Cc1c[nH]c2ccccc12)C(=O)N[C@@H](CCCN=C(N)N)C(=O)N[C@@H](CCCN=C(N)N)C(N)=O [ILPWKLPWWPWRR]

MIC [12]: 1.3 µM (≈ 4 µg/mL)
MIC [13]: 1.3 µM (≈ 4 µg/mL)
MIC [14]: 1.3 µM (≈ 4 µg/mL)
MIC [15]: 1 µM (≈ 3.07 µg/mL)
MIC [16]: 1 µM (≈ 3.07 µg/mL)
MIC [17]: 0.5 µM (≈ 1.54 µg/mL)
MIC [18]: 4.1 µM (≈ 12.6 µg/mL)
MIC [19]: 1.3 µM (≈ 4 µg/mL)
MIC (Escherichia coli MH1): 0.7 µM (≈ 2.15 µg/mL)
MIC [20]: ≥ 33 µM
Compound: CSCC[C@H](NC(=O)CNC(=O)[C@H](CO)NC(=O)[C@H](Cc1c[nH]c2ccccc12)NC(=O)[C@H](CCSC)NC(=O)[C@@H](N)CO)C(=O)N[C@@H](Cc1c[nH]c2ccccc12)C(=O)N[C@@H](CCCN=C(N)N)C(=O)N[C@@H](CCCN=C(N)N)C(=O)N[C@@H](CCCCN)C(=O)N[C@@H](CC(C)C)C(=O)N[C@@H](CCCCN)C(=O)N[C@@H](CCCCN)C(=O)N[C@@H](CC(C)C)C(=O)N[C@@H](CCCN=C(N)N)C(=O)N[C@@H](CC(N)=O)C(=O)N[C@@H](C)C(=O)N[C@@H](CC(C)C)C(=O)N[C@@H](CCCCN)C(=O)N[C@@H](CCCCN)C(=O)N[C@@H](CCCCN)C(=O)N[C@@H](CC(C)C)C(=O)N[C@@H](CCCCN)C(=O)NCC(=O)N[C@@H](CCC(=O)O)C(=O)O [SMWSGMWRRKLKKLRNALKKKLKGE]

MIC [21]: 7.9 µM (≈ 13.9 µg/mL)
MIC (Bacillus subtilis 168): 7 µM (≈ 12.3 µg/mL)
MIC (Escherichia coli B): 15 µM (≈ 26.3 µg/mL)
MIC [22]: 14 µM (≈ 24.6 µg/mL)
MIC [23]: 3 µM (≈ 5.27 µg/mL)
MIC (Staphylococcus aureus): 63 µM (≈ 111 µg/mL)
MIC [24]: 63 µM (≈ 111 µg/mL)
MIC (Pseudomonas aeruginosa): 20 µM (≈ 35.1 µg/mL)
MIC [25]: 6.2 µM (≈ 10.9 µg/mL)
MIC (Staphylococcus aureus 1): ≥ 35 µM
Compound: CC[C@H](C)[C@H](NC(=O)CN)C(=O)N[C@@H](CCSC)C(=O)N[C@@H](CO)C(=O)N[C@@H](CO)C(=O)N[C@@H](CC(C)C)C(=O)N[C@@H](CCSC)C(=O)N[C@@H](CCCCN)C(=O)N[C@@H](CCCCN)C(=O)N[C@@H](CC(C)C)C(=O)N[C@@H](C)C(=O)N[C@@H](CCCCN)C(=O)N[C@@H](Cc1cnc[nH]1)C(=O)N[C@H](C(=O)N[C@@H](C)C(=O)N[C@@H](CCCCN)C(N)=O)[C@@H](C)CC [GIMSSLMKKLAKHIAK]

MIC [9]: ≥ 100 µM
MIC [12]: 3.22 µM (≈ 8 µg/mL)
MIC [13]: 3.22 µM (≈ 8 µg/mL)
MIC [14]: 3.22 µM (≈ 8 µg/mL)
MIC [15]: 2.5 µM (≈ 6.21 µg/mL)
MIC [16]: 1.2 µM (≈ 2.98 µg/mL)
MIC [17]: 0.3 µM (≈ 0.745 µg/mL)
MIC (Escherichia coli K-12): ≥ 100 µM
MIC [18]: > 40 µM
MIC [19]: 6.44 µM (≈ 16 µg/mL)
MIC [3]: 33.8 µM (≈ 84 µg/mL)
MIC (Escherichia coli MH1): 6 µM (≈ 14.9 µg/mL)
MIC [20]: 20 µM (≈ 49.7 µg/mL)
MIC [5]: 40.3 µM (≈ 100 µg/mL)
Compound: CSCC[C@H](NC(=O)[C@H](CO)NC(=O)[C@H](CCCCN)NC(=O)[C@H](Cc1c[nH]c2ccccc12)NC(=O)[C@@H](N)CO)C(=O)N[C@@H](C)C(=O)N[C@@H](CCCCN)C(=O)N[C@@H](CCCCN)C(=O)N[C@@H](CC(C)C)C(=O)N[C@@H](CCCCN)C(=O)N[C@@H](CCC(=O)O)C(=O)N[C@@H](Cc1ccc(O)cc1)C(=O)N[C@@H](CCSC)C(=O)N[C@@H](CCC(=O)O)C(=O)N[C@@H](CCCCN)C(=O)N[C@@H](CC(C)C)C(=O)N[C@@H](CCCCN)C(=O)N[C@@H](CCC(N)=O)C(=O)N[C@@H](CCCNC(=N)N)C(=O)N[C@@H](C)C(=O)O [SWKSMAKKLKEYMEKLKQRA]

Second part, the molecule before the results:

Compound: CC[C@H](C)[C@H](NC(=O)[C@H](CC(C)C)NC(=O)[C@H](CCCCN)NC(=O)[C@H](CC(C)C)NC(=O)[C@H](C)NC(=O)CNC(=O)[C@H](CCCCN)NC(=O)[C@H](C)NC(=O)[C@H](CC(C)C)NC(=O)[C@H](C)NC(=O)CNC(=O)[C@H](Cc1c[nH]c2ccccc12)NC(=O)[C@@H](N)Cc1ccccc1)C(=O)NCC(=O)N[C@H](C(=O)N[C@@H](CO)C(=O)N[C@@H](CC(C)C)C(=O)N[C@@H](Cc1ccccc1)C(=O)N[C@@H](CO)C(=O)N[C@@H](CO)C(=O)N[C@@H](Cc1ccccc1)C(=O)N[C@@H](CO)C(=O)N[C@@H](CCCCN)C(=O)N[C@@H](CCCCN)C(=O)N[C@@H](CC(=O)O)C(=O)O)C(C)C [FWGALAKGALKLIGVSLFSSFSKKD]
MIC [1]: ≥ 300 µM
MIC (Streptococcus agalactiae): ≥ 300 µM
MIC [2]: ≥ 300 µM
MIC [3]: 300 µM (≈ 801 µg/mL)
MIC [4]: ≥ 300 µM
MIC [5]: 300 µM (≈ 801 µg/mL)
MIC (Shigella flexneri): ≥ 300 µM

Compound: CC[C@H](C)[C@H](NC(=O)[C@H](CC(C)C)NC(=O)[C@H](CCCCN)NC(=O)[C@H](CC(C)C)NC(=O)[C@H](C)NC(=O)CNC(=O)[C@H](CCCCN)NC(=O)[C@H](C)NC(=O)[C@H](CC(C)C)NC(=O)[C@H](C)NC(=O)CNC(=O)[C@H](Cc1c[nH]c2ccccc12)NC(=O)[C@@H](N)Cc1ccccc1)C(=O)N[C@H](C(=O)NCC(=O)N[C@@H](CO)C(=O)N[C@@H](CC(C)C)C(=O)N[C@@H](Cc1ccccc1)C(=O)N[C@@H](CO)C(=O)N[C@@H](CO)C(=O)N[C@@H](Cc1ccccc1)C(=O)N[C@@H](CO)C(=O)N[C@@H](CCCCN)C(=O)N[C@@H](CCCCN)C(=O)N[C@@H](CC(=O)O)C(=O)O)C(C)C [FWGALAKGALKLIVGSLFSSFSKKD]
MIC [1]: ≥ 300 µM
MIC (Streptococcus agalactiae): ≥ 300 µM
MIC [2]: ≥ 300 µM
MIC [3]: 300 µM (≈ 801 µg/mL)
MIC [4]: ≥ 300 µM
MIC [5]: 300 µM (≈ 801 µg/mL)
MIC (Shigella flexneri): ≥ 300 µM

Compound: CC[C@H](C)[C@H](NC(=O)[C@H](C)NC(=O)[C@@H](N)CCSC)C(=O)N[C@H](C(=O)NCC(=O)N[C@H](C(=O)N[C@H](C(=O)N[C@H](C(=O)N[C@@H](CCCCN)C(=O)N[C@H](C(=O)N[C@H](C(=O)N[C@@H](CCCCN)C(=O)N[C@@H](C)C(=O)N[C@H](C(=O)N[C@H](C(=O)N[C@@H](CC(=O)O)C(=O)N[C@H](C(=O)N[C@@H](Cc1ccccc1)C(=O)N[C@@H](C)C(=O)N[C@@H](CCCCN)C(=O)O)[C@@H](C)CC)[C@@H](C)CC)[C@@H](C)CC)[C@@H](C)CC)[C@@H](C)CC)[C@@H](C)CC)[C@@H](C)CC)[C@@H](C)O)C(C)C [MAIVGTIIKIIKAIIDIFAK]
MIC [9]: ≥ 64 µM
MIC [10]: ≥ 64 µM
MIC [5]: > 128 µM
MIC [11]: ≥ 128 µM
